Data set [1] addresses T1, purified recombinant form of human BACE1 aspartyl protease (Homo sapiens, UniProt P56817).
T1 construct: hexahistidine (His6) (C); made in house; host or cells: Drosophila cells
Kind of data set: BACE-1 FRET assay, in vitro inhibition of β-secretase activity. It is filed as biochemical. The settings on record: peptide substrate 0.25 μM, enzyme 10 nM, sodium acetate buffer pH 4.5, 60 min, ambient temperature; read-out: IC50 (concentration of product giving 50% inhibition of the enzyme activity). The procedure: The tests consisted in measuring the in vitro inhibition of the β-secretase activity by the compounds of the invention, via the use of the “BACE-1 FRET Assay Kit, Red” available from PanVera-Invitrogen Inc. The β-secretase activity measured corresponds to that of a purified recombinant form of human BACE1 aspartyl protease (the latter comprising a hexahistidine tag at the C-terminal position) produced by expression in Drosophila cells. The purified enzyme is conditioned in TRIS buffer (18 mM) at pH 7.5 containing NaCl (0.45M), MnCl2 (0.9 mM), CaCl2 (0.9 mM), α-D-methylmannoside and 10% glycerol, and stored at −80° C. until use. The BACE1 activity is measured from the cleavage of a fluorogenic peptide substrate sold by Invitrogen (PanVera BACE1/β-secretase FRET assay kit, Red; reference P2985), based on the principle of fluorescence resonance energy transfer (FRET) and corresponding to the Rh-EVNLDAEFK-Quencher sequence; the cleavage of the peptide is measured from the increase of the fluorescent signal emitted by the rhodamine derivative (Rh). The test is carried out in a 96-well microplate in order to determine the inhibition of the enzyme activity by the products of the invention. […] When the incubation is finished, the fluorescence is measured in a spectrofluorimeter, at the excitation wavelength of about 543 nm and emission wavelength of about 585 nm. […]

The values that follow come from US8030320B2, “Derivatives of 1-OXO-1,2-dihydroisoquinoline-5-carboxamides and of 4-OXO-3,4-dihydroquinazoline-8-carboxamides, preparation thereof and application thereof in therapeutics” (Sanofi-Aventis, priority 2007, dated 2011).

Structures can show the parent of a compound that is named as a salt.

T1 sequence (P56817 46-501): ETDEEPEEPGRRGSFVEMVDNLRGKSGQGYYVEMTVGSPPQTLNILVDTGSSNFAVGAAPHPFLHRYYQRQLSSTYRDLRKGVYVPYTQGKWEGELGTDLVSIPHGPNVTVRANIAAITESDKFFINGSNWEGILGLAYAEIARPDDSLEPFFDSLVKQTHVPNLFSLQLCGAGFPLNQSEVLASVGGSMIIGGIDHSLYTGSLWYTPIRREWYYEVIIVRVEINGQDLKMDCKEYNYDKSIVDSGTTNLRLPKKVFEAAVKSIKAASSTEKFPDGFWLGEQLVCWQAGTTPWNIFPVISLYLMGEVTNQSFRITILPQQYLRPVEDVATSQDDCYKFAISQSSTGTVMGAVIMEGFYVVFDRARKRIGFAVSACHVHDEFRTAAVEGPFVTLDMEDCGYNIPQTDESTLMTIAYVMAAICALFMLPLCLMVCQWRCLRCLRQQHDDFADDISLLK

Turning to `CCCC(CCC)n1ccc2c(C(=O)N[C@@H](Cc3ccccc3)[C@H](O)CNCc3cccc(C(F)(F)F)c3)cccc2c1=O` [Compound 1, N-[(1S,2R)-1-benzyl-2-hydroxy-3-{[3-(trifluoromethyl)benzyl]-amino}propyl]-1-oxo-2-(1-propylbutyl)-1,2-dihydroisoquinoline-5-carboxamide hydrochloride (1:1)], in data set [1], the IC50 was 2.6 µM.

As to `CCCC(CCC)n1cnc2c(C(=O)N[C@@H](Cc3ccccc3)[C@H](O)CNCc3cccc(C(F)(F)F)c3)cccc2c1=O.Cl` [Compound 3, N-[(1S,2R)-1-benzyl-2-hydroxy-3-{[3-(trifluoromethyl)benzyl]-amino}propyl]-4-oxo-3-(1-propylbutyl)-3,4-dihydroquinazoline-8-carboxamide hydrochloride (1:1)], the melting point (usually the temperature, or range, at which the solid turns liquid) stood at 152 °C. Moreover, the IC50 in data set [1] was found to be 0.83 µM.
